Data set [1] deals with Mast/stem cell growth factor receptor Kit (Homo sapiens, UniProt P10721). Description: Inhibition of human recombinant cKit by FRET assay.
For data set [2], the target named is Serine/threonine-protein kinase B-raf (Homo sapiens, UniProt P15056). Description: Inhibition of b-Raf.
The nature of data set [3]: Cmax in ICR mouse at 15 mg/kg. The format is ADME, organism-based. On the set-up: dose 15 mg/kg. Conditions: in vivo.
Data set [4] is described as follows: AUC (1 to 5 hrs) in ICR mouse. It counts as ADME, organism-based. Further details: time 1-5 hr. Conditions: plasma.
The target of data set [5] is Vascular endothelial growth factor receptor 2 (Homo sapiens, UniProt P35968). Briefly: Inhibition of VEGFR2.
Data set [6] concerns COLO 205. Briefly: Inhibition of tumor growth in human Colo205 cells xenografted in athymic mouse at 50 mg/kg, po once daily after 9 days. The format is functional. The conditions noted are these: COLO 205, 216 h. Background: A xenograft is tissue or cells of one species grown in another, often human tumour cells in immunodeficient mice.
In data set [7] the test system is MDA-MB-231. Description: Inhibition of tumor growth in human MDA-MB-231 cells xenografted in athymic mouse at 50 mg/kg, po once daily after 9 days. The conditions noted are these: MDA-MB-231, 216 h. It counts as functional.
Data set [8] can be described thus: Volume of distribution at steady state in iv dosed ICR mouse. It counts as ADME, organism-based. Conditions: in vivo, read-out: Vdss.
The subject of data set [9] is NCI-H460. Briefly: Inhibition of tumor growth in human NCI-H460 NSCLC cells xenografted in athymic mouse at 50 mg/kg, po once daily after 9 days. It counts as functional. Conditions: NCI-H460, 216 h.
Data set [10] is described as follows: Cmax in ICR mouse at 25 mg/kg. The format is ADME, organism-based. Further details: dose 25 mg/kg. The conditions noted are these: in vivo.
A short description of data set [11]: AUC (0 to 5 hrs) in ICR mouse at 25 mg/kg, po. The format is ADME, organism-based. Further details: time < 4 hr, dose 25 mg/kg, route oral. Conditions: plasma.
Data set [12] is described as follows: AUC in ICR mouse at 25 mg/kg, po. It counts as ADME, organism-based. Further details: dose 25 mg/kg, route oral. The conditions noted are these: plasma.

Where “and” joins values, the source holds several entries; their conditions need not be identical. Equal values may be shown once.

By IC50 is commonly meant the concentration that gives 50% inhibition. As usually defined, the Cmax is the maximum level reached in the sampled fluid or tissue. By AUC(0-t) is commonly meant exposure summed from dosing to a finite time, without extrapolation to infinity. For orientation: inhibition in vivo means the change of the read-out against control, counted positive when it falls. What is called AUC is concentration integrated over time. Lower therefore signals less exposure.

Chain of Vascular endothelial growth factor receptor 2 (P35968 whole entry): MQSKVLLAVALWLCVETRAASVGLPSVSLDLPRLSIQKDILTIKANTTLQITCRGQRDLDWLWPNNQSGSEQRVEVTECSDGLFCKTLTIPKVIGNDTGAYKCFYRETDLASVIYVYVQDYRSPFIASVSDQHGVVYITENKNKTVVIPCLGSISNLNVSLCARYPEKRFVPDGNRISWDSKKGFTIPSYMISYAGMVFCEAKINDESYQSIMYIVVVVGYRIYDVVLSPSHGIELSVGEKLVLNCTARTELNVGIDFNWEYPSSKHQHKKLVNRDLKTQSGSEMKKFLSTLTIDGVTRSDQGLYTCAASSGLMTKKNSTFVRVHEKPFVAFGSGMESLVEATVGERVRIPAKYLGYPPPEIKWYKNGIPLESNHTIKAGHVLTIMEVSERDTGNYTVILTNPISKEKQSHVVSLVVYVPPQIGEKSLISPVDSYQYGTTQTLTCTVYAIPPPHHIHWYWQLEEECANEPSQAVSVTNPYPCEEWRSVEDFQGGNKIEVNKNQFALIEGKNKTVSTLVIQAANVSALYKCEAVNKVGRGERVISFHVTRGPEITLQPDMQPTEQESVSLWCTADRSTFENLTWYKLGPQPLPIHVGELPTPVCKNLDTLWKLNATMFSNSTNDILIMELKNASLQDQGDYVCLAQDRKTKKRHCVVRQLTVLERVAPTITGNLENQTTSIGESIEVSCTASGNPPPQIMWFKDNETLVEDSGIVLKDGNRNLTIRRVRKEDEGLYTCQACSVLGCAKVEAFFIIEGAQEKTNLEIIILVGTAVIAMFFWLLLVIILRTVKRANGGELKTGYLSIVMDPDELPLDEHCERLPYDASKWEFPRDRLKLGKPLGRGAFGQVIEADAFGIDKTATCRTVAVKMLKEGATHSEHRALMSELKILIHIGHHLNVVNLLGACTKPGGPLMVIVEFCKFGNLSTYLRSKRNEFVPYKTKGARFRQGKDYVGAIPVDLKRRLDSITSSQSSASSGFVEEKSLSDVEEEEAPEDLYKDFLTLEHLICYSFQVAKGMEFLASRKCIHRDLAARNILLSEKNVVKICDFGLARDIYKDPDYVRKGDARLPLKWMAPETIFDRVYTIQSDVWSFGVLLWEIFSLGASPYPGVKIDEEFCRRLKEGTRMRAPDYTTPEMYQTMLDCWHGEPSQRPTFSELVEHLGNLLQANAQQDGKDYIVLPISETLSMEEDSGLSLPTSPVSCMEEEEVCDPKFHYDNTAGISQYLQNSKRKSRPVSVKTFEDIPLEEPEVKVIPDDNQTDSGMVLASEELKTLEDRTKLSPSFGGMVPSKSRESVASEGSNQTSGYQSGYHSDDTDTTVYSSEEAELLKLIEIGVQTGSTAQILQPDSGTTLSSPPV
Chain of Serine/threonine-protein kinase B-raf (P15056 whole entry): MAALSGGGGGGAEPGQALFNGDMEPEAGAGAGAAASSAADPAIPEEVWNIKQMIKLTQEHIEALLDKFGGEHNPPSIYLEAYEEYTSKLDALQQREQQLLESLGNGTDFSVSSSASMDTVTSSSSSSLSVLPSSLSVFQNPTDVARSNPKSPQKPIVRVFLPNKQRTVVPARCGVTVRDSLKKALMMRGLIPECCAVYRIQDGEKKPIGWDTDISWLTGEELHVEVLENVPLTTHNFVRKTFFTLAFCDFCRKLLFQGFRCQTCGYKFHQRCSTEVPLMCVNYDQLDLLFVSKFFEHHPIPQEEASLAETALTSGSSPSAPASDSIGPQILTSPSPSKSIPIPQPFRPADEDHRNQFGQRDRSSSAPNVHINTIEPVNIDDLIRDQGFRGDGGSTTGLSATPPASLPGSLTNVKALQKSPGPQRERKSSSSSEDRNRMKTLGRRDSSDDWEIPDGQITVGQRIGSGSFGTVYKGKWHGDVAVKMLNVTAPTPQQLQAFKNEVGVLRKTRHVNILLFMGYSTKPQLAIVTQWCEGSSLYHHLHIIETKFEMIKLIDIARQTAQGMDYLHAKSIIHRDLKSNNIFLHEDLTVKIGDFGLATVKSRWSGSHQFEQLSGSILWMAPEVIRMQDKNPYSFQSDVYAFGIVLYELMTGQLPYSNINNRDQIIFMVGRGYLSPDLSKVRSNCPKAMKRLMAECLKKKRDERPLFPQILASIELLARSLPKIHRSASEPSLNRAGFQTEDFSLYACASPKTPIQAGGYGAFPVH
Chain of Mast/stem cell growth factor receptor Kit (P10721 whole entry): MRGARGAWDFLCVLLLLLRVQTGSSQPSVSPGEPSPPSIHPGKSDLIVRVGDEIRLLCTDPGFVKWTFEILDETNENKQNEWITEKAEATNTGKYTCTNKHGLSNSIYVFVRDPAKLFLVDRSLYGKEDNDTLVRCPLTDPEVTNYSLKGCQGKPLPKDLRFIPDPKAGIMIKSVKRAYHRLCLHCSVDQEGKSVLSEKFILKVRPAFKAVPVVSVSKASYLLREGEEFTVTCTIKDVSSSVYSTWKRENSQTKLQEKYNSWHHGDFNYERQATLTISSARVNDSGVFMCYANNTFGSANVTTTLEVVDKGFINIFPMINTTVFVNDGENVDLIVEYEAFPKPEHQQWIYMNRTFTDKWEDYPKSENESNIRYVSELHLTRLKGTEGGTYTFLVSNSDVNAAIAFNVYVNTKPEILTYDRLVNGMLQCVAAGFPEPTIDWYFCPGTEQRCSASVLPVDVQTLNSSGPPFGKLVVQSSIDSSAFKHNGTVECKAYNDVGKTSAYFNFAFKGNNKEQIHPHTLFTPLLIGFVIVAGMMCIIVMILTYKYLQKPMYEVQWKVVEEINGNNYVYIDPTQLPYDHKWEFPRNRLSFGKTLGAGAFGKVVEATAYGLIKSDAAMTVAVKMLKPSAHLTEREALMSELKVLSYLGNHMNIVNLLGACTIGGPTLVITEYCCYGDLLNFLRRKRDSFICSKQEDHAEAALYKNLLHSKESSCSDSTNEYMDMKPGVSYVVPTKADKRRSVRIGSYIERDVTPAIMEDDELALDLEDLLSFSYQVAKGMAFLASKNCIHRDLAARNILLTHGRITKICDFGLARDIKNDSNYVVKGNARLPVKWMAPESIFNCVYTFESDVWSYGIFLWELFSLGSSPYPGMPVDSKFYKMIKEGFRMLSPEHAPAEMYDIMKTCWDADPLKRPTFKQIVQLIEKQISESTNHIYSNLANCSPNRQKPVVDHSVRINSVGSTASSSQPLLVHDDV

Consider `CCN(CC)CCNC(=O)c1cc(CNc2ccccc2C(=O)Nc2ccc3c(c2)OC(F)(F)O3)ccn1`, for which the IC50 in [1] came to 58 nM; in data set [2] it was 138 nM.

For the molecule `O=C(Nc1ccc2c(c1)OC(F)(F)O2)c1ccccc1NCc1ccnc(NCCCn2ccnc2)c1`, the IC50 in data set [1] was found to be 20 nM; in [2], 101 nM.

Regarding `O=C(Nc1ccc2c(c1)OC(F)(F)O2)c1ccccc1NCc1ccnc(NCCc2cnc[nH]2)c1`, the IC50 in [1] stood at 23 nM; in [2], 146 nM.

Regarding `N#Cc1cc(CNc2ccccc2C(=O)Nc2ccc3c(c2)OC(F)(F)O3)ccn1`, the IC50 in [1] is 37 nM; in data set [2], 110 nM.

Regarding `CNC(=O)Nc1ccc(CNc2c(C(=O)Nc3ccc4c(c3)OC(F)(F)C(F)(F)O4)cnn2C)cn1`, the IC50 in data set [1] turned out to be 12 nM; in [5] it was 43 nM. Further, the Cmax in [3] is 6 µM. Besides, the exposure AUC(0-t) in data set [4] was 19 µM·h.

As to `CCN(CC)CCCNC(=O)c1cc(CNc2ccccc2C(=O)Nc2ccc3c(c2)OC(F)(F)O3)ccn1`, the IC50 in data set [1] stood at 42 nM; in [2], 175 nM.

For the molecule `CS(=O)(=O)Nc1cc(CNc2ccccc2C(=O)Nc2ccc3c(c2)OC(F)(F)O3)ccn1`, the values for the concentration for half-maximal inhibition (IC50) in data set [1] and in [2] were 25 nM and 594 nM, respectively.

Consider `O=C(Nc1ccc2c(c1)OC(F)(F)O2)c1ccccc1NCc1ccnc(NCCO)c1`, for which the IC50 in [1] was 8 nM; in data set [2], 112 nM.

Consider `O=C(NCc1ccccc1)Nc1cc(CNc2ccccc2C(=O)Nc2ccc3c(c2)OC(F)(F)O3)ccn1`, for which the figures for the IC50 in [1] and in data set [2] were 48 nM and 232 nM, respectively.

As to `CCNC(=O)Nc1ccc(CNc2ncsc2C(=O)Nc2ccc3c(c2)OC(F)(F)O3)cn1`, the IC50 in data set [1] is 4 nM; in [5], 7 nM. For the same molecule, the inhibition in vivo at 50 mg/kg is 86% in data set [6], 92% in data set [7] and 79% in [9]. For the same molecule, in data set [4], the AUC(0-t) is 255 µM·h. In data set [8], the Vd amounted to 0.24 L/kg. Besides, in data set [10], the concentration peaked (Cmax) at 64 µM.

On to `COCCCNc1cc(CNc2ccccc2C(=O)Nc2ccc3c(c2)OC(F)(F)O3)ccn1`, for which the IC50 in data set [1] was found to be 12 nM; in data set [2], 156 nM.

Regarding `CC(=O)Nc1cc(CNc2ccccc2C(=O)Nc2ccc3c(c2)OC(F)(F)O3)ccn1`, the IC50 in data set [1] worked out at 1 nM; in data set [2] it was 5 nM.

In the case of `CNC(=O)Nc1ccc(CNc2ncsc2C(=O)Nc2ccc3c(c2)OC(F)(F)O3)cn1`, the IC50 is 5 nM in data set [1] and 3 nM in [5]. Also, the inhibition in vivo at 50 mg/kg in data set [6] is 84%; in [7], 90%; in data set [9], 70%. In data set [4], the AUC(0-t) was determined as 538 µM·h. Also, the Vd in [8] was found to be 0.151 L/kg. Also, the concentration in data set [10] peaked (Cmax) at 124 µM.

In the case of `O=C(NCCO)c1cc(CNc2ccccc2C(=O)Nc2ccc3c(c2)OC(F)(F)O3)ccn1`, the IC50 in [1] stood at 18 nM; in [2], 397 nM.

For `CCNC(=O)Nc1cc(CNc2ccccc2C(=O)Nc2ccc3c(c2)OC(F)(F)O3)ccn1`, the IC50 in [1] worked out at 7 nM; in data set [2], 90 nM. For the same molecule, the AUC(0-t) at 4 h in [11] was greater than 400 µM·h.

In the case of `CN(C)c1nccc(CNc2ccccc2C(=O)Nc2ccc3c(c2)OC(F)(F)O3)n1`, the values for the IC50 in data set [1] and in data set [2] were 50 nM and 349 nM, respectively.

Take `CNC(=O)c1cc(CNc2ccccc2C(=O)Nc2ccc3c(c2)OC(F)(F)O3)ccn1`: the IC50 in data set [1] came to 5 nM; in data set [2] it was 45 nM. In data set [12], this molecule showed an AUC of 40 µM·h.

Consider `O=C(NC1CC1)c1cc(CNc2ccccc2C(=O)Nc2ccc3c(c2)OC(F)(F)O3)ccn1`, for which the IC50 in data set [1] turned out to be 16 nM; in [2], 192 nM.

In the case of `CNC(=O)Nc1cc(CNc2ccccc2C(=O)Nc2ccc3c(c2)OC(F)(F)O3)ccn1`, the IC50 is 5 nM in data set [1] and 24 nM in [2].

As for `CNC(=O)Nc1ccc(CNc2c(C(=O)Nc3ccc(SC(F)(F)F)cc3)cnn2C)cn1`, the IC50 in [1] was 17 nM; in data set [2] it was 154 nM; in data set [5] it was 62 nM. The same molecule showed a Cmax in data set [3] of 3.6 µM. In [4], this molecule yielded an AUC(0-t) of 11 µM·h.

In the case of `O=C(Nc1ccc2c(c1)OC(F)(F)O2)c1ccccc1NCc1ccnc(NCCCO)c1`, the IC50 was found to be 9 nM in data set [1] and 142 nM in [2].

Regarding `O=C(NCCCN1CCOCC1)c1cc(CNc2ccccc2C(=O)Nc2ccc3c(c2)OC(F)(F)O3)ccn1`, the values for the IC50 in [1] and in [2] were 45 nM and 6830 nM, respectively.

With `O=C(Nc1ccc2c(c1)CCC2)Nc1cc(CNc2ccccc2C(=O)Nc2ccc3c(c2)OC(F)(F)O3)ccn1`, the IC50 is 240 nM in data set [1] and 64 nM in data set [2].

Regarding `CNC(=O)c1cc(CNc2ccsc2C(=O)Nc2ccc3c(c2)OC(F)(F)O3)ccn1`, the IC50 in data set [1] came out at 3 nM; in data set [2] it was 61 nM.

In the case of `O=C(Nc1ccc2c(c1)OC(F)(F)O2)c1ccccc1NCc1ccnc(C2=NCCN2)c1`, the values for the IC50 in data set [1] and in [2] were 72 nM and 153 nM, respectively.

For the molecule `COCCCNC(=O)c1cc(CNc2ccccc2C(=O)Nc2ccc3c(c2)OC(F)(F)O3)ccn1`, the IC50 is 19 nM in data set [1] and 1030 nM in [2].

With `O=C(Nc1ccc2c(c1)OC(F)(F)C(F)(F)O2)c1ncsc1NCc1ccncc1`, the IC50 in data set [1] amounted to 95 nM; in data set [2], 2560 nM.

With `CNc1nccc(CNc2ccccc2C(=O)Nc2ccc3c(c2)OC(F)(F)O3)n1`, the IC50 was found to be 3 nM in data set [1] and 26 nM in data set [2].

For the molecule `CNC(=O)c1cc(CNc2ncsc2C(=O)Nc2ccc3c(c2)OC(F)(F)C(F)(F)O3)ccn1`, the IC50 was 12 nM in data set [1] and 192 nM in data set [2].

For `COCCNC(=O)c1cc(CNc2ccccc2C(=O)Nc2ccc3c(c2)OC(F)(F)O3)ccn1`, the values for the IC50 in [1] and in data set [2] were 38 nM and 497 nM, respectively.

Consider `CNC(=O)c1cc(CNc2ncsc2C(=O)Nc2ccc3c(c2)OC(F)(F)O3)ccn1`, for which the IC50 amounted to 25 nM in data set [1] and 1240 nM in data set [2].

For `CNC(=O)c1cc(CNc2c(C(=O)Nc3ccc4c(c3)OC(F)(F)O4)cnn2C)ccn1`, the IC50 worked out at 11 nM in data set [1] and 199 nM in [2].

For the molecule `NC(=O)c1cc(CNc2ccccc2C(=O)Nc2ccc3c(c2)OC(F)(F)O3)ccn1`, the IC50 was determined as 2 nM in [1] and 34 nM in [2].

As for `NC(=S)c1cc(CNc2ccccc2C(=O)Nc2ccc3c(c2)OC(F)(F)O3)ccn1`, the IC50 in data set [1] turned out to be 27 nM; in data set [2], 100 nM.

Consider `CCNC(=O)c1cc(CNc2ccccc2C(=O)Nc2ccc3c(c2)OC(F)(F)O3)ccn1`, for which the IC50 in data set [1] is 25 nM; in data set [2], 333 nM.

On to `Nc1cc(CNc2ccccc2C(=O)Nc2ccc3c(c2)OC(F)(F)O3)ccn1`, for which the IC50 in data set [1] is 4 nM and 1 nM; in data set [2], 634 nM and 274 nM.

For the molecule `CS(=O)(=O)CCNC(=O)c1cc(CNc2ccccc2C(=O)Nc2ccc3c(c2)OC(F)(F)O3)ccn1`, the results for the IC50 in data set [1] and in [2] were 17 nM and 221 nM, respectively.

Regarding `CNc1cc(CNc2ccccc2C(=O)Nc2ccc3c(c2)OC(F)(F)O3)ccn1`, the results for the IC50 in [1] and in [2] were 3 nM and 100 nM, respectively.

For `O=C(Nc1ccccc1)Nc1cc(CNc2ccccc2C(=O)Nc2ccc3c(c2)OC(F)(F)O3)ccn1`, the concentration for half-maximal inhibition (IC50) in data set [1] is 87 nM; in data set [2], 39 nM.

As for `COCCNc1cc(CNc2ccccc2C(=O)Nc2ccc3c(c2)OC(F)(F)O3)ccn1`, the IC50 in data set [1] stood at 13 nM; in data set [2] it was 104 nM.

Consider `O=C(Nc1ccc2c(c1)OC(F)(F)C(F)(F)O2)c1ccccc1NCc1ccncc1`, for which the figures for the IC50 in data set [1] and in [2] were 19 nM and 40 nM, respectively. Further, the AUC in data set [12] came to 6 µM·h.

As for `O=C(Nc1ccc2c(c1)OC(F)(F)O2)c1ccccc1NCc1ccnc(NCCOCCO)c1`, the IC50 in [1] came out at 4 nM; in data set [2] it was 165 nM.

The values are drawn from ChEMBL document CHEMBL1140657, “SAR of a novel 'Anthranilamide Like' series of VEGFR-2, multi protein kinase inhibitors for the treatment of cancer” (Bioorg Med Chem Lett, 2007).
